In brackets after ≈: the same amount, converted by molar mass. Where two headings read alike, the source gives them in different places.
Key:
measles = assay: Measles virus inhibition of viral CPE in BSC-1 cells; assay type: cell-based; details: for EC50: Table II footnote g, read-out: Others EC50, against measles
VZV = VZV plaque reduction assay in human foreskin fibroblast cells; assay type: cell-based, varicella zoster virus; details: Table II
Summary of the method: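 VZV at 20-30 plaques/well adsorbed 1 h onto HFF monolayers, then 0.5% agarose overlay holding drug at final 100 down to 0.03 μg/mL (1:5 steps), duplicates. Incubation 10 days, extra MEM/agarose overlay on days 3 and 6; neutral red staining, plaques counted.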

[1] = test system: human foreskin fibroblast cells; assay: Cell viability in the CMV plaque reduction assay (MTC); assay type: cell-based
Excerpt: Five calanolide analogues, prepared as described above, were further evaluated for their anti-HCMV activity in plaque reduction assay against various laboratory and clinical isolates (Towne, AD 169, E. Mann, Coffinan, and C9208).

[2] = test system: human foreskin fibroblast cells; assay: Toxicity run with the VZV assay, human foreskin fibroblast cells; assay type: cell-based; details: Table II
Summary of the method: (§1)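 Human foreskin fibroblasts exposed to drug at 37 °C in CO2, either 72 h followed by Coulter Counter counts (triplicate counts, three replicate wells), or seven days followed by dye staining for 1 h and optical density at 550 nm.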

[3] = test system: HCMV isolates Towne, AD169, E. Mann, Coffman, C9208; assay: Anti-CMV plaque reduction assay against various laboratory and clinical isolates (Example 40); assay type: cell-based, human cytomegalovirus
CEM-SS cells = assay: CEM-SS MTT assay, cytotoxicity (Table I); assay type: cell-based, human
HCMV = HCMV semi-automated CPE-inhibition assay in human foreskin fibroblast cells; assay type: cell-based, human cytomegalovirus
[4] = test system: human foreskin fibroblast cells; assay: Toxicity run with the HCMV assay, human foreskin fibroblast cells; assay type: cell-based; details: Table II
Summary of the method: as §1

HBV = HBV replication in cultures of 2.2.15 cells, extracellular HBV virion DNA (primary assay); details: for EC50: read-out: HBV EC50
Protocol: Both intracellular and extracellular HBV DNA are analyzed in order to (i) allow for verification of compound efficacy and (ii) provide possible data on the target site in the HBV replication pathway for the compound from examination of the pattern of viral replicative forms. The culture medium is changed daily during the treatment period to (i) prevent the buildup of potentially toxic metabolites derived from test compounds and (ii) provide an analysis of HBV virion production during discrete 24-hour intervals which enables a quantitative comparison of any effect on virion production.
The analysis of HBV DNA is performed using blot hybridization techniques (Southern and slot blot) and [^32P]-labeled HBV-specific probes. HBV DNA levels are measured by comparison to known amounts of HBV DNA standards applied to every nitrocellulose membrane (gel or slot blot). An AMBIS beta scanner, which measures the radioactive decay of the hybridized probes directly from the nitrocellulose membranes, is used for the quantitative analysis. Standard curves, generated by multiple analyses, are used to correlate CPM measurements made by the beta scanner with relative levels of target HBV DNA. The levels of HBV virion DNA released into the culture medium are analyzed by a slot blot hybridization procedure.

2.2.15 cells = assay: Toxicity in 2.2.15 cells, neutral red dye uptake; assay type: cell-based, human; details: Table II, read-out: HBV IC50
Protocol: Cells of 2.2.15 were grown to confluence in 96-well flat-bottomed tissue culture plates and treated with compounds (in 0.2 mL culture medium/well) as described above. Four concentrations of each compound were assayed, each in triplicate cultures, in 3- to 10-fold steps. Untreated control cultures were maintained on each 96-well plate. On each 96-well plate, wells containing no cells were used to correct for light scattering.

`CCCc1cc(=O)oc2c3c(c4c(c12)OC(C)(C)C=C4)OC(C)C(C)C3=O` (racemic) [(±)-7a] was tested, and the EC50 (measles) was 13.7 µM, the “VZV EC50” value (VZV) was 13.7 µg/mL and the “MTC (minimum drug concentration that reduced cell viability by 25%)” value [1] was 10 µM. For the same molecule, the “VZV IC50” value [2] was 33.3 µg/mL, the EC50 ([3]; isolate AD169) was 3.16 µM and the EC50 ([3]; isolate C9208) was 2.6 µM. It also gave an EC50 ([3]; isolate Coffman) of 3.16 µM, an EC50 ([3]; isolate E. Mann) of 3.16 µM and an EC50 ([3]; isolate Towne) of 3.08 µM. The IC50 (CEM-SS cells) was 12 µM, the “HCMV EC50” value (HCMV; Table II) was 0.15 µg/mL and the EC50 (HIV-1; CEM-SS MTT assay) was 2.82 µM. For the same molecule, the “Maximum Protection (%)” value (HIV-1; CEM-SS MTT assay) was 55%, the “HCMV IC50” value [4] was 19.8 µg/mL and the EC50 (HBV; Table II) was 44 µM. For the same molecule, the IC50 (2.2.15 cells) was 32 µM.

`CCCc1cc(=O)oc2c3c(c4c(c12)OC(C)(C)C=C4)O[C@H](C)[C@@H](C)C3=O` [(+)-7, 10(R),11(R)-trans-Dihydro6,6,10,11-tetramethyl-4-propyl-2H,6H,12H-benzo [1,2-b:3,4-b′:5,6-b″]tripyran-2,12-dione] was tested, and the EC50 (measles; Measles morbillivirus, BSC-1) was 3 µM, the potency against measles (measles; text summary of Table II) was “potent” and the EC50 (VZV; Human alphaherpesvirus 3, Fibroblast) was 55.9 µg/mL (≈ 152 µM). For the same molecule, the “MTC (minimum drug concentration that reduced cell viability by 25%)” value ([1]; isolate AD169) was 100 µM, the “MTC (minimum drug concentration that reduced cell viability by 25%)” value ([1]; isolate C9208) was >100 µM and the “MTC (minimum drug concentration that reduced cell viability by 25%)” value ([1]; isolate Coffman) was >100 µM. The “MTC (minimum drug concentration that reduced cell viability by 25%)” value ([1]; isolate E. Mann) was 100 µM, the “MTC (minimum drug concentration that reduced cell viability by 25%)” value ([1]; isolate Towne) was >100 µM and the IC50 ([2]; Homo sapiens, Fibroblast) was > 100 µg/mL. It also gave an EC50 ([3]; Human betaherpesvirus 5, AD169, isolate AD169) of 3.16 µM, an EC50 ([3]; Human betaherpesvirus 5, AD169, isolate C9208) of 4.91 µM and an EC50 ([3]; Human betaherpesvirus 5, AD169, isolate Coffman) of 4.78 µM. The EC50 ([3]; Human betaherpesvirus 5, AD169, isolate E. Mann) was 4.65 µM, the EC50 ([3]; Human betaherpesvirus 5, AD169, isolate Towne) was 5.02 µM and the IC50 (CEM-SS cells; Homo sapiens) was 72.8 µM. For the same molecule, the EC50 (HCMV; Human betaherpesvirus 5, Fibroblast, Table II) was 0.11 µg/mL (≈ 0.299 µM), the “potency against HCMV” value (HCMV; text summary of Table II) was “very potent” and the “Maximum Protection (%)” value (HIV-1; CEM-SS MTT assay) was 90%. For the same molecule, the “protecting cells against HIV infection” value (HIV-1; text summary of Table I) was “highly efficacious”, the IC50 ([4]; Homo sapiens, Fibroblast) was 47.9 µg/mL (≈ 130 µM) and the EC50 (HBV; Hepatitis B virus) was 7.2 µM. The “potency against HBV” value (HBV; text summary of Table II) was “potent” and the IC50 (2.2.15 cells; Homo sapiens) was 57 µM.
